Patent US6979747B2, “Antioxidants, preparation processes and their uses” (Centre National de la Recherche Scientifique (CNRS), priority 1999, dated 2005)

Legend:
[1] = biological target: T1, RT of the HIV-1 LAI isolate (Human immunodeficiency virus type 1 group M subtype B, UniProt P03367); assay: Acellular test of the enzymatic activity of RT; format: biochemical; conditions: acellular system
T1 construct: The RT is released by lysis of the viral pellet in 20 μl of NTE-Triton; endogenous in cells; host or cells: Virions pelleted by ultracentrifugation from supernatants of infected cell cultures
Description: (§1) The viral replication is measured by assaying the RT activity in the culture supernatants according to the technique described by F. Rey et al. (Biochem. Biophys. Res. Comm., 1984, 121, 126-133). The radioactivity incorporated during the extension of the complementary strand of a poly-rA synthetic matrix in the presence of an oligo-dT12-18 primer and of a radiolabeled substrate, [^3H-methyl]thymidine-5′-triphosphate ([^3H]TPP), makes it possible to assay the enzymatic activity of RT. 400 μl of supernatant are ultracentrifuged at 360 000 g for 5 min. The RT is released by lysis of the viral pellet in 20 μl of NTE-Triton (100 mM NaCl, 10 mM Tris, 1 mM EDTA, 0.1% Triton X-100). These 20 μl are subsequently incubated with 40 μl of the following reaction mixture: 62.5 mM Tris, pH 7.8; 25 mM KCl; 6.25 mM MgCl2; 1.25 mM dithiothreitol (DTT); 2.5×10^−3 ODU oligo-dT12-18 and poly-rA, 5.55×10^−3 TBq {^3H]TTP. After one hour at 37° C., the enzymatic reaction is halted and the newly synthesized strands are precipitated for 20 min at 4° C. by the addition of 1 ml of sodium pyrophosphate (NaPP), of 50 μl of yeast DNA (0.1 mg/ml in 5% trichluoroacetic acid (TCA)), and of 4 ml of 20% TCA. The mixture is filtered using a cellulose acetate membrane (Millipore) which retains the radiolabeled poly-dT chains. The filter is washed using 20 ml of 5% TCA and the residual water is removed by addition of 25 μl of 70% ethanol. The filter is dried in an oven for 10 minutes at 80° C. and is then introduced into vials containing 8 ml of liquid scintillant. The β radioactivity is quantified by means of a scintillation counter (Packard Bell). The results are expressed in pM of [^3H]-TMP incorporated/h/ml of supernatant or, more simply, in cpm/h/ml.
The I-152 molecule is composed of NAC and MEA, which are capable of inhibiting the activity of RT (A. Bergamini et al., J. Clin. Invest., 1994, 93, 2251-2257). For this reason, the inhibiting capacity of I-152 with respect to the RT activity was measured using an acellular test. This test was carried out according to the protocol described above (§ 3.3.3.1.). In the reaction mixture, only the 20 μl of water are replaced by 20 μl of a concentration of I-152 or of the reference compounds. Heparin, known for inhibiting the activity of RT and of the other DNA polymerases, is used as positive control for inhibition.

HIV-1 LAI = assay: Antiviral activity in quiescent or PHA-P activated PBMCs infected with HIV-1 LAI; format: cell-based; conditions: for decrease of viral replication: PBMCs activated by PHA-P
Description: For some experiments, the PBMCs and the PBLs are activated for 48 h with 1 μg/ml of a mitogen, PHA-P (Difco Laboratories). The PBMCs and the PBLs are cultured in medium A (quiescent) or B (activated). The cells are cultured at 37° C. in an atmosphere saturated with moisture under 5% of CO2. The culture supernatants are removed and the culture media are replaced every three or four days. At each renewal of the culture media, the cell viability is evaluated by coloring with trypan blue or by microscopic observation.
(§2) The MDMs were infected with the reference isolate with macrophage tropism, HIV-1/Ba-L. The PBMCs and the PBLs were infected with the reference isolate with lymphocyte tropism HIV-1 LAI. The viral stock were formed by amplifying these strains in vitro using umbilical blood mononucleated cells (UBM(s) preactivated with 1 μg/ml of PHA-P and cultured in medium A supplemented by 20 IU/ml of IL-2. In order to remove the soluble factors, such as cytokines, the culture supernatants were ultracentrifuged at 360 000 g for 5 min, and the pellets were resuspended in RPMI 1640. The viral stocks thus formed were subsequently titred using PBMCs activated with PHA-P. The TCID50s (50% Tissue Culture Infectious Dose) were calculated using the Kärber formula.
(§3) A million MDMs were infected with 10 000 TCID50s of the HIV-1/Ba-L strain. This amount of virus corresponds to a multiplicity of infection (m.o.i.) equal to 0.01. The excess of virus is removed 24 h after by washing with cells using RPMI 1640. The PBLs and the PBMCs were infected with 10 000 TCID50s of the HIV-1 LAI strain (moi=0.01). The cells were washed at the end of the second day of infection.
as §1
The PBMCs, quiescent or activated by PHA-P, were infected by the reference strain with lymphocyte tropism HIV-1 LAI. All the culturings were carried out in parallel and the drugs were maintained throughout the culturing.

GSH = assay: Intracellular GSH in MDMs infected with HIV-1/Ba-L; format: cell-based, human; conditions: MDMs with GSH deficiency after infection with HIV-1/Ba-L
Description: The intracellular GSH was assayed by means of the assay kit sold by Cayman. This method for assaying glutathione is an adaptation of that described by O. W. Griffith et al. (1980).
The compound I-152 and its derivatives are prepared extemporaneously by being dissolved in dimethyl sulfoxide (DMSO) at the concentration of 100 mM. They are subsequently stored at −20° C. after having been diluted 10 fold in phosphate buffer (PBS).

HIV-1/Ba-L = assay: Antiviral activity in MDM cultures infected with HIV-1/Ba-L (RT activity in culture supernatants); format: cell-based; conditions: for viral replication (in words): treatment of MDMs 7 days after infection
Description: A million monocytes in 1 ml of culture medium A are distributed in each well of a 48 well plate (Becton-Dickinson). The monocytes are left to differentiate into macrophages for 7 days. The macrophages thus differentiated are maintained in culture in medium A.
as §2, §3, §1
The 50% effective doses (ED50) are calculated from the cumulative RT activities using the software “Dose-effects analysis with microcomputers” developed by J. Chou & T. C. Chou.

[2] = tested on: total glutathione (GSH+GSSG); assay: Total intracellular glutathione in quiescent PBMCs; format: cell-based, human
[3] = ratio of inhibiting concentrations, MDMs, HIV-1/Ba-L

With `CC(=O)N[C@@H](CS)C(=O)NCCSC(C)=O` [I-152, N-(N-acetyl-L-cysteinyl)-S-acetylcysteamine] the “inhibiting activity with respect to RT (in words)” value [1] was “do not exhibit an inhibiting activity”, the “cytotoxicity (in words)” value (PBMCs) was “not cytotoxic” and the inhibition at 125 µM (HIV-1 LAI; Human immunodeficiency virus 1, PBMC, quiescent PBMCs, 125 μM, read-out: inhibition of viral replication) was 88%. For the same compound, the inhibition at 250 µM (HIV-1 LAI; Human immunodeficiency virus 1, PBMC, quiescent PBMCs, 250 μM, read-out: inhibition of viral replication) was 97%, the “decrease of viral replication” value (HIV-1 LAI; 125 μM) was 25% and the “decrease of viral replication” value (HIV-1 LAI; 250 μM) was 42%. The “regeneration of intracellular GSH level (in words)” value (GSH) was “capable of regenerating an abnormally low intracellular level”, the EC50 (HIV-1/Ba-L; Human immunodeficiency virus 1, BAL, MDMs infected with 10 000 TCID50s HIV-1/Ba-L (m.o.i. 0.01), read-out: inhibiting concentration (50% effective dose)) was 50 µM and the “antiviral activity (in words)” value (HIV-1/Ba-L; MDMs infected with HIV-1/Ba-L, compounds dissolved in medium A) was “strong antiviral activity superior to that of NAC or of MEA”. The “times more effective than MEA” value (HIV-1/Ba-L; [3]) was 6 times, the “times more effective than NAC” value (HIV-1/Ba-L; [3]) was 188 times and the “antiviral activity (in words)” value (HIV-1/Ba-L; second series, compounds dissolved in DMSO then diluted, MDMs, HIV-1/Ba-L) was “the most effective in inhibiting viral replication”. For the same compound, the “viral replication (in words)” value (HIV-1/Ba-L; 250 μM) was “ineffective”, the “viral replication (in words)” value (HIV-1/Ba-L; 500 μM) was “viral replication is extinguished” and the “times more active than NAC” value ([2]; from concentrations supplementing the culture medium giving equivalent glutathione) was 120 times. For the same compound, the “intracellular glutathione at high concentration (in words)” value ([2]; quiescent PBMCs, 250 μM) was “decrease”, the “effect on intracellular level of glutathione (in words)” value ([2]; quiescent PBMCs, 24 h treatment) was “increases the intracellular level of glutathione” and the “intracellular concentration of total glutathione” value ([2]; quiescent PBMCs, dose 125 μM) was 2.64 ± 0.13 µM.
